What was measured:
[1] = system: MCF-7 cells; assay: [3H]-Thymidine incorporation assay; format: cell-based, human; details: for effect on MCF-7 cell proliferation ([3H]-thymidine incorporation): 3 days treatment, FIG. 2 and 3
Protocol: MCF-7 cells (10,000 cells/well) were subcultured in 24 well plates and treated with hormone for 3 days in graded concentrations (FIG. 2). For the last 12 hours, [^3H]-thymidine (0.5 μCi/well) was added to cells. Cells were treated with TCA (20% for 15 minutes, twice with 10% for 3 minutes, and ethanol for 3 minutes). Acid-insoluble material was dissolved in 1 N NaOH, then neutralized with 1 N HCl. Radioactivity was measured by liquid scintillation counting. Data were expressed as radioactivity (% of control). The control was cells treated with vehicle (0.1% ethanol). […] Anti-proliferative effects of BCA11 and calcitriol were additive.

[2] = system: BT20 cells; assay: Effect of dietary vitamin D on BT20 tumor growth; format: in vivo, athymic nude mice; details: for tumor weight: day 69
Protocol: BT20 cells (estrogen receptor-negative, human breast cancer cells; 5 million) were injected with Matrigel (10 mg/ml) into each flank of 10 weeks old female athymic nude mice. Tumor growth was monitored for six weeks on a low-calcium diet (0.4% Ca, 0.3% P and no vitamin D; Harlan Teklad). Then, mice bearing equal number and size tumors were randomly selected for treatment groups. One group continued on the low-calcium diet (serum 25-OH-D3 approx. 2 pg/ml) and received vehicle and the other group was placed on a normal diet (1.19% Ca, 0.86% P, and 6.6 mg/kg vitamin D; serum 25-OH-D3 approx. 18 pg/ml) and received vehicle.
Six weeks old female athymic mice were placed on diets of 0.5% Ca, 0.3% P, and either no vitamin D (serum 25-OH-D3 approx. 3 pg/ml; serum calcitriol approx. 30 pg/ml) or vitamin D (4 mg/kg (serum 25-OH-D3 approx. 34 pg/ml; serum calcitriol approx. […]) or 40 mg/kg (serum 25-OH-D3 approx. 73 pg/ml; serum calcitriol approx. 70 pg/ml)). Two weeks later, BT20 cells (5 million) were injected with Matrigel (10 mg/ml) into each flank and tumor growth was monitored in the absence of drug treatment.

[3] = system: MCF-7 cells; assay: In vivo inhibition of advanced stage tumor growth; design: species or system athymic nude mice; details: 2 mg/kg on alternate days, day 35, estrogen pellets
Protocol: MCF-7 cells were injected with Matrigel (10 mg/ml) into 7 weeks old female athymic nude mice (10 mice/treatment group). Tumors were grown in the presence of implanted estrogen pellets (0.72 mg pellets). Four weeks after inoculation, mice were treated for 5 weeks with hormones or vehicle (propylene glycol) on alternate days. BCA11 was added at a concentration of 1 μg/kg and Tamoxifen was added at a concentration of 2 mg/kg.

[4] = Serum calcium and toxicity with chronic in vivo administration; design: species or system athymic nude mice; details: 1 μg/kg alternate days, 5 weeks, FIG. 7
Protocol: MCF-7 cells were injected with Matrigel (10 mg/ml) into 7 weeks old female athymic nude mice. Tumors were grown in the presence of implanted estrogen pellets (0.72 mg pellets). After four weeks inoculation, mice were treated for 5 weeks with hormones or vehicle (propylene glycol) control on alternate days. BCA11 and EB1089 were added at a concentration of 1 μg/kg. Serum was drawn throughout hormone treatment from the orbital vein of the mice and assayed by the Department of Clinic Chemistry, National Institutes of Health, by methods well-known in the art. […] Similar results were obtained from multiple blood samples taken from the phase II study. Calcium and phosphorous levels were assayed by Ani Lytics and fell within normal ranges. In addition, alkaline phosphatase, albumin, bilirubin and creatinine levels were measured in both phases.

[5] = system: BT20 cells; assay: Growth of estrogen receptor-negative breast cancer in vivo; design: species or system athymic nude mice
Protocol: BT20 cells (estrogen receptor-negative, human breast cancer cells; 5 million) were injected with Matrigel (10 mg/ml) into each flank of 10 weeks old female athymic nude mice. Mice were maintained on a low-calcium diet (0.4% Ca, 0.3% P and no vitamin D; Harlan Teklad). Then, mice bearing equal number and size tumors were randomly selected for treatment groups. […] Treatment groups received 1.5 μg/kg BCA11 at approximately 21 days after injection of cells. Control groups received vehicle (25% propylene glycol and 75% saline). Drugs or vehicle were injected i.p. three times per week. Tumor growth was monitored biweekly with caliper measurements. […] (Biochem. Pharmacol. (1992)). […] After about four weeks, the mice were divided into treatment and control groups. […] Control groups received vehicle (25% propylene glycol and 75% saline). Drugs or vehicle were injected i.p. three times per week. Tumor growth was monitored biweekly with caliper measurements. Tumor volumes were calculated as indicated in Example 7.

C[C@]12CC[C@@H]3c4ccc(O)cc4CC[C@H]3[C@@H]1CC[C@@H]2O [17β Estradiol]
effect on MCF-7 cell proliferation ([3H]-thymidine incorporation) [1]: stimulate cell growth

vitamin D
tumor volume ([2]; diet with 4 mg/kg vitamin D, 36 days after injection of BT20 cells): approximately 12.5 mm^3
tumor weight ([2]; diet with 4 mg/kg vitamin D): approximately 0.3 g
tumor volume ([2]; diet with 40 mg/kg vitamin D, 36 days after injection of BT20 cells): approximately 9.5 mm^3
tumor weight ([2]; diet with 40 mg/kg vitamin D): approximately 0.19 g
tumor volume ([2]; normal diet with 6.6 mg/kg vitamin D, 41 days after inoculation): approx. 37 mm^3

CC/C(=C(\c1ccccc1)c1ccc(OCCN(C)C)cc1)c1ccccc1 [Tamoxifen]
inhibition of tumor growth (tumor volume) compared to control [3]: about 50%

C=C1/C(=C\C=C2/CCC[C@]3(C)[C@@H]([C@H](C)CCCC(C)(C)O)CC[C@@H]23)C[C@@H](O)C[C@@H]1O [Calcitriol, 1,25-dihydroxycholecalciferol]
[3H]-Thymidine Incorporation MCF-7 cells (% of Control) ([1]; 10 nM of each hormone): 67 ± 8 % of Control
effect on MCF-7 cell proliferation ([3H]-thymidine incorporation) [1]: stimulate cell growth

C=C1/C(=C\C=C2/CCC[C@]3(C)[C@@H]([C@H](C)/C=C/C=C/C(O)(CC)CC)CC[C@@H]23)C[C@@H](O)C[C@@H]1O [EB1089]
serum calcium levels [4]: fell within the normal range of physiological calcium
tumor weight ([5]; 1.0 μg/kg, day 69): ~0.07 g
tumor volume ([5]; i.p. three times per week, around 60 days of treatment, 4 mg/kg vitamin D diet): approximately 14 mm^3

From patent US7361664B2, “Vitamin D receptor antagonists and related compositions and methods of use” (The United States of America as represented by the …, priority 2001, dated 2008)
